Assay results reported in the supplement of paper PMC10307832.

Tests used:
Assay in all cases: relative viability (nuclei count vs DMSO), 5 days (fraction); higher = more cells survive
CX-5461 + Foretinib = compound: Cc1cnc(CNC(=O)c2c(=O)c3ccc(N4CCCN(C)CC4)nc3n3c2sc2ccccc23)cn1 [CX-5461] + COc1cc2c(Oc3ccc(NC(=O)C4(C(=O)Nc5ccc(F)cc5)CC4)cc3F)ccnc2cc1OCCCN1CCOCC1 [Foretinib] (partner 0.25 µM)
Method in brief: (§1)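 Cells from lung cancer lines were seeded into 1536-well plates and, one day later, dosed by pin tool. Treatments were either a single drug or a fixed dose of an anchor drug with five library-drug doses (not always all listed) in √10 steps. After 5 days, nuclei were stained in a one-step fixation (final 0.05% Triton X-100, 1% formaldehyde, 1 ug/ml Hoechst) and counted on 4× images, and relative viability is the treated-to-vehicle nuclei ratio, as the median of duplicate plates.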

CX-5461 + Crizotinib = compound: Cc1cnc(CNC(=O)c2c(=O)c3ccc(N4CCCN(C)CC4)nc3n3c2sc2ccccc23)cn1 [CX-5461] + C[C@@H](Oc1cc(-c2cnn(C3CCNCC3)c2)cnc1N)c1c(Cl)ccc(F)c1Cl [Crizotinib] (partner 1 µM)
Method in brief: as §1

CX-5461 + Linsitinib = compound: Cc1cnc(CNC(=O)c2c(=O)c3ccc(N4CCCN(C)CC4)nc3n3c2sc2ccccc23)cn1 [CX-5461] + C[C@]1(O)C[C@@H](c2nc(-c3ccc4ccc(-c5ccccc5)nc4c3)c3c(N)nccn32)C1 [Linsitinib] (partner 1 µM)
Method in brief: as §1

IMD-0354 + Pictilisib = compound: O=C(Nc1cc(C(F)(F)F)cc(C(F)(F)F)c1)c1cc(Cl)ccc1O [IMD-0354] + CS(=O)(=O)N1CCN(Cc2cc3nc(-c4cccc5[nH]ncc45)nc(N4CCOCC4)c3s2)CC1 [Pictilisib] (partner 1 µM)
Method in brief: as §1

Cell Line	relative viability (CX-5461 + Foretinib; first compound 0.01 µM)	relative viability (CX-5461 + Foretinib; first compound 0.03162 µM)	relative viability (CX-5461 + Foretinib; first compound 0.1 µM)	relative viability (CX-5461 + Foretinib; first compound 0.3162 µM)	relative viability (CX-5461 + Foretinib; first compound 1 µM)	relative viability (CX-5461 + Crizotinib; first compound 0.01 µM)	relative viability (CX-5461 + Crizotinib; first compound 0.03162 µM)	relative viability (CX-5461 + Crizotinib; first compound 0.1 µM)	relative viability (CX-5461 + Crizotinib; first compound 0.3162 µM)	relative viability (CX-5461 + Crizotinib; first compound 1 µM)	relative viability (CX-5461 + Linsitinib; first compound 0.01 µM)	relative viability (CX-5461 + Linsitinib; first compound 0.03162 µM)	relative viability (CX-5461 + Linsitinib; first compound 0.1 µM)	relative viability (CX-5461 + Linsitinib; first compound 0.3162 µM)	relative viability (CX-5461 + Linsitinib; first compound 1 µM)	relative viability (IMD-0354 + Pictilisib; first compound 0.04 µM)	relative viability (IMD-0354 + Pictilisib; first compound 0.1265 µM)	relative viability (IMD-0354 + Pictilisib; first compound 0.4 µM)	relative viability (IMD-0354 + Pictilisib; first compound 1.265 µM)	relative viability (IMD-0354 + Pictilisib; first compound 4 µM)
NCI-H1299	1.06	1.06	1.09	1.06	1.11	0.961	0.99	0.991	0.959	0.863	0.942	0.977	1.04	1.01	0.831	0.753	0.717	0.369	0.0957	0.0657
EBC-1	0.108	0.085	0.11	0.112	0.0969	0.174	0.207	0.19	0.215	0.156	0.988	1.04	1.04	0.859	0.753	0.421	0.327	0.29	0.153	0.157
NCI-H2347	0.994	1.11	0.947	0.842	0.849	0.446	0.696	0.674	0.687	0.523	0.963	1.03	1.04	0.582	0.795	0.77	0.532	0.679	0.624	0.392
NCI-H1993	0.738	0.779	0.813	0.746	0.788	0.972	0.819	0.862	0.822	0.825	0.743	0.681	0.722	0.712	0.643	0.773	0.783	0.706	0.617	0.662
NCI-H322M	0.834	0.995	0.937	0.394	0.7	0.924	1.06	0.79	–	0.877	0.844	0.911	0.944	–	0.9	0.575	0.519	0.485	0.557	0.446
NCI-H838	1.11	1.1	1.16	–	0.931	0.973	0.87	0.843	0.347	0.641	1.1	1.05	1.08	0.847	0.859	0.559	0.458	0.377	0.247	0.26
HARA	1.01	1.09	0.806	–	0.89	1.16	1.14	0.941	0.206	0.954	0.953	1.04	0.98	0.772	0.966	0.598	0.3	0.393	0.116	0.193
NCI-H2087	1.17	1.43	1.01	1.14	0.787	0.989	0.969	0.874	0.813	0.593	1.03	0.999	0.946	0.811	1.05	0.711	0.979	0.43	0.198	0.228
NCI-H1437	1.25	1.26	–	1.23	1.18	1	0.948	–	0.885	0.791	1.17	1.11	–	0.991	0.763	0.492	0.381	0.442	0.153	0.185
NCI-H650	1.07	1.02	1.01	0.977	0.932	0.666	0.961	0.668	0.309	0.631	0.955	0.999	0.697	0.571	0.373	1.09	0.89	0.597	0.415	0.239
COR-L23	0.997	1.09	0.881	0.774	0.597	0.63	0.797	0.482	0.602	0.256	0.908	1.05	0.651	0.969	0.472	0.636	0.646	0.371	0.131	0.211
COR-L 105	1.13	1.05	1.11	0.813	0.549	1.12	0.992	0.861	0.745	0.325	1.05	0.93	1.08	0.852	0.59	0.439	0.351	0.303	0.278	0.293
201T	1.06	1.05	1.04	1.08	0.74	1.07	1.02	1.02	1.03	1.01	1.05	0.995	1.03	1.02	0.993	0.785	0.661	0.584	0.59	0.41
NCI-H596	0.896	1.18	0.888	1.03	0.97	0.981	0.972	0.973	1.19	0.907	1.11	1.06	1.21	1.15	1.1	0.383	0.381	0.375	0.372	0.34
H3255	0.907	0.854	0.818	0.558	0.835	0.849	0.957	0.883	0.268	0.662	1.04	1.01	0.935	0.735	0.988	0.469	0.421	0.342	0.34	0.251
NCI-H647	1.21	1.25	1.26	1.05	1	1.02	1.18	1.05	1.06	0.401	1.15	1.25	1.1	1.25	0.442	0.626	0.524	0.184	0.232	0.0513
